Measurements taken from ChEMBL document CHEMBL1201862, “PubChem BioAssay data set” (2004).
The source made the active and inactive calls.

Columns and labels:
[1] = molecular target: T1, Adenosylmethionine-8-amino-7-oxononanoate aminotransferase (Mycobacterium tuberculosis, UniProt P9WQ81); test: Mycobacterium tuberculosis BioA enzyme inhibitor Measured in Biochemical System Using Plate Reader - 2163-02_Inhibitor_Dose_CherryPick_Activity.; format: functional, Mycobacterium tuberculosis UT205
T1 sequence (P9WQ81 whole entry): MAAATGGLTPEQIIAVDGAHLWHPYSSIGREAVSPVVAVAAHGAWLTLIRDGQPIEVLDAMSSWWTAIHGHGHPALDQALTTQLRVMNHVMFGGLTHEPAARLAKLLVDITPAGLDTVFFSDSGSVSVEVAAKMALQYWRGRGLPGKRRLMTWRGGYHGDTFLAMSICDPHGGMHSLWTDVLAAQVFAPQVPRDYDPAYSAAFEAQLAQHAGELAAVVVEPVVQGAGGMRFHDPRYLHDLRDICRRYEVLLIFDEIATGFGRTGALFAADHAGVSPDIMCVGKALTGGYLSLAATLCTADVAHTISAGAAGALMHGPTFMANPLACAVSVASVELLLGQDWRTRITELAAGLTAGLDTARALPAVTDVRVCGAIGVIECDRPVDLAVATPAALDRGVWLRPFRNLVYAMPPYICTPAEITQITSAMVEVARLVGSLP

[2] = blockade of melanocortin 4 receptor signaling – cell-based, plate reader, cherry pick, counter-screen for LGR2 antagonist project, dose response (AID 743444); format: functional;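 also: transfected HEK 293 cells stimulated with alpha-MSH peptide; potency of inhibitors of the alpha-MSH evoked signal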
[3] = blockers of bursicon-stimulated LGR2 cAMP reporter – cell-based, HEK293, CRE-luciferase reporter, cherry pick, set 2, dose response (AID 743343); format: functional;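 also: transfected cells were stimulated with diluted bursicon conditioned medium after compound addition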
Cytochrome P450 3A4 = Cytochrome P450 3A4 (Homo sapiens, UniProt P08684);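 also: CYP3A4 tested as one member of a cytochrome P450 panel screen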
Sequence of Cytochrome P450 3A4 (P08684 whole entry): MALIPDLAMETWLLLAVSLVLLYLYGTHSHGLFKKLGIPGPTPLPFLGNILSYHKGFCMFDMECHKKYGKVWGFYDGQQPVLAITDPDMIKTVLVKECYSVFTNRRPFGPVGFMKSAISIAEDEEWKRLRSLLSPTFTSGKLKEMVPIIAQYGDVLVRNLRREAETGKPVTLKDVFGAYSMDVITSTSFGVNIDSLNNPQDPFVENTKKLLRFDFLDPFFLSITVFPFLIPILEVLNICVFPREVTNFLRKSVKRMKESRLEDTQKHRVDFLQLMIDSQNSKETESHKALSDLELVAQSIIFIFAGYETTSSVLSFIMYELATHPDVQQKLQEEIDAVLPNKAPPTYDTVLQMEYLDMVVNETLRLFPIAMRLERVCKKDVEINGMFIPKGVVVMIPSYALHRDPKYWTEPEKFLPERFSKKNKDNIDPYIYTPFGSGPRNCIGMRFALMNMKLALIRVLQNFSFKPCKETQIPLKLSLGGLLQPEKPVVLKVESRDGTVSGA

[4] = MIN6 cell viability loss – mouse insulinoma, cytotoxicity control, dose response (AID 2122); format: functional;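 also: confirmatory high-throughput counterscreen run to flag cytotoxic compounds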
[5] = decrease of insulin promoter-GFP reporter – imaging, high-content screening, mouse beta cells (AID 1628); format: functional; conditions: MIN6
cells [6] = format: functional, cell-based
[7] = Luminescence Cell-Based Dose Response HTS to Identify Activators of Luciferase Translation or Activity in H4 […] Cells. [Related pubchem assays: 1829 (Project Summary), 1814 (Primary HTS)]; format: functional
H4 = test: Luminescence Cell-Based Dose Response HTS to Identify Activators of 5'UTR Stem-Loop Driven Prion Protein mRNA Translation in H4 Neuroglioblastoma Cells. [Related pubchem assays: 1829 (Project Summary), 1814 (Primary HTS)]; format: functional; conditions: Homo sapiens
[8] = Luminescence Cell-Based Dose Confirmation HTS to Identify Activators of 5'UTR Stem-Loop Driven Alpha-Synuclein mRNA Translation in H4 Neuroglioblastoma Cells. [Related pubchem assays: 1829 (Project Summary), 1814 (Primary HTS)]; format: functional
cells [9] = format: functional, cell-based; remark: listed apart in the source
Cytochrome P450 1A2 = molecular target: T2, Cytochrome P450 1A2 (Homo sapiens, UniProt P05177);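 also: PubChem cytochrome P450 panel assay, CYP1A2 panel member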
T2 sequence (P05177 whole entry): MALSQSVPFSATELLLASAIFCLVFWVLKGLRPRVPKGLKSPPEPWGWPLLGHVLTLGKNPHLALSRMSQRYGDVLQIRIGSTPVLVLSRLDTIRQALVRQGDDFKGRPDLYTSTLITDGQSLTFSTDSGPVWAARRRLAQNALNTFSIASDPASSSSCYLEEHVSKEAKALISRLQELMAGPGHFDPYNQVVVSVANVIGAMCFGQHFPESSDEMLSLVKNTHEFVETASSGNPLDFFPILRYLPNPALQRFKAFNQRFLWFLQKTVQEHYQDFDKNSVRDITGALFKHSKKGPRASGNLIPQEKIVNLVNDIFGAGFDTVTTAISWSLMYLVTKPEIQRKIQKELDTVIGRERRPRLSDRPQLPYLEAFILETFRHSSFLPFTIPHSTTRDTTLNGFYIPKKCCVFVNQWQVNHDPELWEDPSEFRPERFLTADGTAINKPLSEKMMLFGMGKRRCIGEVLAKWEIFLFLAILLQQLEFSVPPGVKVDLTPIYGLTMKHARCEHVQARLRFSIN

[10] = fluconazole-exposed Candida albicans growth modulators – fluorescence, retest, confirmation (AID 2467); format: functional, cell-based
[11] = NIH-3T3 fibroblast cytotoxicity, dose response, cytotoxicity control, cell-based, fluorescence, Alamar Blue, secondary assay (AID 2327); format: functional;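 also: NIH-3T3 mouse fibroblasts cultured with fluconazole at 8 µg/mL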
Nonstructural protein 1 = Nonstructural protein 1 (Influenza A virus, UniProt Q194T2); format: functional, Influenza A virus (A/California/07/2009(H1N1))
Sequence of Nonstructural protein 1 (Q194T2 whole entry): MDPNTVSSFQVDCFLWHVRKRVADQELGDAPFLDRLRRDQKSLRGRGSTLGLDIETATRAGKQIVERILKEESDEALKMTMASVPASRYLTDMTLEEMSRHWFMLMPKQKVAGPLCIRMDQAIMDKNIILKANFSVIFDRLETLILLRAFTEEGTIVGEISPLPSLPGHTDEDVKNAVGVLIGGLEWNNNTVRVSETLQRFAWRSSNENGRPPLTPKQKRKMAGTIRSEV

H9c2 = test: cells; format: functional, cell-based; conditions: Rattus norvegicus, H9c2, Myocardium;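 also: confirmatory concentration-response retest of ultra-high-throughput screening hits for modulation of myocardial damage; cell death induced by hydrogen peroxide oxidative stress; compound pretreatment for 60 min then peroxide exposure for 2 h; potency is for protecting the cells against peroxide damage rather than for killing them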
SN12K1 = test: cells; format: functional; conditions: Homo sapiens
P388 = test: cells; format: functional; conditions: Mus musculus
P388/ADR = test: cells; format: functional; conditions: Mus musculus
Paired box protein Pax-8 = Paired box protein Pax-8 (Homo sapiens, UniProt Q06710); test: PAX8 transcriptional activity inhibition in RMG-I – RMG-I cells, luciferase, cherry-pick, dose response (AID 687027); format: functional, cell-based;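 also: luciferase reporter driven by Pax8 target thyroperoxidase promoter measured by SteadyGlo luminescence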
Sequence of Paired box protein Pax-8 (Q06710 whole entry): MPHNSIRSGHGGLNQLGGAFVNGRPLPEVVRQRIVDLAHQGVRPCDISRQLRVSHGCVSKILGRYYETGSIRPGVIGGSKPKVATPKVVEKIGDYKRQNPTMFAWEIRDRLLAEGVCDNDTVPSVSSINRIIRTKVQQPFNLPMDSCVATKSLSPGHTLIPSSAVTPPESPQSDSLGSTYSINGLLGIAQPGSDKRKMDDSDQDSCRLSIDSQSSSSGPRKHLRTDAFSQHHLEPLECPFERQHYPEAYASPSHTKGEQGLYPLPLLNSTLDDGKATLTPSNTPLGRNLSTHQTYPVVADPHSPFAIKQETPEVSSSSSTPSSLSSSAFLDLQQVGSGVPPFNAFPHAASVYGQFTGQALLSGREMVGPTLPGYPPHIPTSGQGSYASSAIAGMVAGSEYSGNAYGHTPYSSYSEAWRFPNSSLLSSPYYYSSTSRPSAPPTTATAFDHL

[12] = OVCAR-3 cell viability loss – plate reader, dry powder samples, PAX8 inhibitor project, dose response (AID 743044); format: functional, cell-based
[13] = OVCAR8 cell viability loss – plate reader, dry powder samples, PAX8 project, dose response (AID 743197); format: functional, cell-based; conditions: OVCAR-8
[14] = Vero E6 cell cytotoxicity, dose response, cytotoxicity control for non-replicating M. tuberculosis project, secondary assay (AID 492998); format: functional, VeroE6; conditions: Vero C1008
[15] = THP-1 cell cytotoxicity, dose response, cytotoxicity control for non-replicating M. tuberculosis project (AID 489025); format: functional
INS1 = test: INS-1E survival protection against cytokine death – cell-based, luminescence, retest, dose response (AID 449756); format: functional; conditions: Rattus norvegicus;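 also: cell death triggered by IL-1 beta plus TNF-alpha plus IFN-gamma mixture; protective hits raise ATP signal compared with cytokine alone wells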

Question: Which AC50 [1] does the source give for O=C(CSc1nncs1)N1c2ccccc2Sc2ccccc21 here?
Answer: The AC50 was 1.56 µM (active).

Question: With Cc1ccc(-c2nnc(-c3ccccc3Br)o2)cc1 as the compound, how does the AC50 [2] read?
Answer: The AC50 was 20.3 µM (active).

Question: What about the AC50 [3] of the same compound?
Answer: Its AC50 is 14.3 µM (active).

Question: For COc1ccc(C(=O)N2CCC3(CC2)CCN(c2ccccc2)CC3)cc1, which AC50 (Cytochrome P450 3A4) is on record?
Answer: The AC50 was “inconclusive”.

Question: For Cc1cc(C(=O)CSc2nc3ccccc3[nH]2)c(C)n1Cc1ccco1, which IC50 [4] is on record?
Answer: Its IC50 is 1.29 µM (active).

Question: What about the IC50 [5] of the same compound?
Answer: Its IC50 is 1.93 µM (active).

Question: With COc1ccc2oc(=O)c(C(=O)NC3CCCCCC3)cc2c1 as the compound, how does the EC50 (cells [6]) read?
Answer: Its EC50 is > 350 µM (not active).

Question: And the EC50 [7]?
Answer: The EC50 was 32.6 µM (active).

Question: And the EC50 (H4)?
Answer: The EC50 was 19.8 µM (active).

Question: What about the EC50 [8] of the same compound?
Answer: Its EC50 is 28.6 µM (active).

Question: And the EC50 (cells [9])?
Answer: The EC50 was > 350 µM (not active).

Question: Which AC50 (Cytochrome P450 3A4) does the source give for O=C(c1cccc(F)c1)N1CCC2(CC1)CCN(c1ccccc1)CC2 here?
Answer: Its AC50 is “inconclusive”.

Question: With COc1ccc(OC)c(C2=Nn3c(nnc3-c3cc(C)[nH]n3)SC2)c1 as the compound, how does the EC50 (cells [6]) read?
Answer: Its EC50 is > 350 µM (not active).

Question: And the EC50 (cells [9])?
Answer: Its EC50 is > 350 µM (not active).

Question: For O=C1C=C(c2ccccc2)CC(c2cccs2)C1n1cnc([N+](=O)[O-])c1 (stereo not given), which EC50 (cells [6]) is on record?
Answer: Its EC50 is > 350 µM (not active).

Question: And the EC50 (cells [9])?
Answer: The EC50 was > 350 µM (not active).

Question: Which AC50 (Cytochrome P450 1A2) does the source give for CCS(=O)(=O)N1CCN(c2c(Cl)cccc2[N+](=O)[O-])CC1 here?
Answer: The AC50 was 15.8 µM (inconclusive).

Question: And the AC50 (Cytochrome P450 3A4)?
Answer: Its AC50 is “inconclusive”.

Question: Which EC50 (cells [6]) does the source give for CCOc1cccc(-c2c(C(=O)N/N=C(\C)c3ccccn3)nnn2-c2nonc2N)c1 here?
Answer: The EC50 was > 350 µM (not active).

Question: What about the EC50 [10] of the same compound?
Answer: Its EC50 is > 38 µM (not active).

Question: What about the EC50 [11] of the same compound?
Answer: The EC50 was 18.2 µM (active).

Question: What about the IC50 (Nonstructural protein 1) of the same compound?
Answer: The IC50 was 3.36 µM (active).

Question: What about the EC50 (cells [9]) of the same compound?
Answer: Its EC50 is 6.32 µM (active).

Question: What about the IC50 (H9c2) of the same compound?
Answer: Its IC50 is > 79 µM (inactive).

Question: For O=C[C@@H](CO)O[C@H](C=O)n1cnc2c(=O)nc[nH]c21, which GI50 (SN12K1) is on record?
Answer: The GI50 was 284 µM (inactive).

Question: What about the GI50 (P388) of the same compound?
Answer: The GI50 was 76 µM (inactive).

Question: What about the GI50 (P388/ADR) of the same compound?
Answer: Its GI50 is 69.2 µM (inactive).

Question: For C/C=C/c1ccc2c(c1)O[C@@H](CN(C)C(=O)Cc1cccnc1)[C@H](C)CN([C@H](C)CO)S2(=O)=O, which AC50 [1] is on record?
Answer: Its AC50 is 10.3 µM (active).

Question: For CN(C(=O)CSc1nc2ccccc2c(=O)n1-c1ccccc1Cl)C1CCS(=O)(=O)C1 (stereo not given), which AC50 [1] is on record?
Answer: The AC50 was 2.22 µM (active).

Question: With C[C@@H]1CCCCO[C@H](CN(C)C(=O)Nc2ccc(F)cc2)[C@@H](C)CN([C@@H](C)CO)C(=O)c2cc(NS(=O)(=O)c3ccc(Cl)cc3)ccc2O1 as the compound, how does the AC50 (Paired box protein Pax-8) read?
Answer: Its AC50 is 4.84 µM (active).

Question: And the AC50 [12]?
Answer: Its AC50 is 19.6 µM (active).

Question: And the AC50 [13]?
Answer: Its AC50 is 35 µM (active).

Question: Which GI50 (SN12K1) does the source give for COc1cccc(N[C@@H]2c3cc4c(cc3C(c3cc(OC)c(O)c(OC)c3)[C@H]3C(=O)OCC32)OCO4)c1 (stereo not given in full) here?
Answer: Its GI50 is 0.0615 µM (active).

Question: And the GI50 (P388)?
Answer: Its GI50 is < 0.01 µM (active).

Question: And the GI50 (P388/ADR)?
Answer: The GI50 was 0.0635 µM (active).

Question: Which results are given for CCOc1ccc(C(=O)N/N=C(/C)C2C(=O)c3ccccc3C2=O)cc1?
Answer: CC50 [14]: > 20 µM (active); CC50 [15]: > 40 µM (active)

Question: Which AC50 (INS1) does the source give for COc1ccc(/C=N/NC(=O)c2nc(-c3ccccc3)n(-c3ccccc3)n2)c(O)c1 here?
Answer: Its AC50 is 1.47 µM (active).

Question: What about the EC50 (cells [6]) of the same compound?
Answer: Its EC50 is > 350 µM (not active).

Question: What about the EC50 (cells [9]) of the same compound?
Answer: The EC50 was 10.1 µM (active).
